The subject of this experiment is embryos of women undergoing IVF. Put plainly: Pre-implantation genetic diagnosis, euploidy rate by length of DHEA usage (Example 3). The experiment is classed as in vivo, human. As for the experimental part: In another study (data not shown), patients were analyzed after four weeks of DHEA treatment. Seven patients had embryos tested by pre-implantation genetic diagnosis (PGD). In three women who had PGD after less than four weeks of DHEA usage and a mean age 41.5±5.1 at the time of starting IVF cycles, the euploidy, or normal chromosome number, rate was 2/30 embryos (6.6%). […] There is a mean age difference between patients who underwent IVF after less than four weeks of DHEA usage (mean age 41.5±5.1) and patients who underwent IVF after at least four weeks of DHEA usage (mean age 43.7±1.3).

Regarding `C[C@]12CC[C@H](O)CC1=CC[C@@H]1[C@@H]2CC[C@]2(C)C(=O)CC[C@@H]12` [DHEA, Dehydroepiandrosterone], the euploidy rate is, setting by setting: (PGD after less than four weeks of DHEA usage, three women, 2/30 embryos) 6.6%; (PGD after more than four weeks of DHEA usage, six patients, 8/27 embryos) 29.6%.

Values taken from US9375436B2, “Androgen treatment in females” (priority 2004, dated 2016).
